Measurements taken from the supplement of paper PMC12613149.

What was measured:
[1] = reversed-phase LC retention time (C18, 15 min MeOH gradient); higher = more hydrophobic / later elution
Protocol: (§1)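 Reference mixture of environmental contaminants analysed by RP-LC (BEH C18, 50 °C; ESI+ with water/MeOH plus formic acid and ammonium formate, ESI- with ammonium bicarbonate) coupled to a timsTOF Pro 2 with trapped ion mobility in nitrogen (ramp/accumulation 100 ms). CCS was calibrated with Agilent tune mix (CCS compendium) and averaged over five injections at 0.5-500 ng/mL. The table reports the lowest-CCS (putative monomer) peak; retention times are on the same gradient.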

[2] = collision cross section (TIMS, N2 drift gas) of the primary ion; higher = larger gas-phase ion size
Protocol: as §1

[3] = ionization mode: ESI-, ion species: [M-H]-
[4] = ionization mode: ESI+, ion species: [M+H]+

Compound | reversed-phase LC retention time [1, 3] [min] | collision cross section [2, 3] [Å²] | reversed-phase LC retention time [1, 4] [min] | collision cross section [2, 4] [Å²]
Oc1c(Br)cc(Br)cc1Br [2,4,6-Tribromophenol] | 12.8 | 133.11 |  | 
O=C(O)c1ccc(Cl)cc1Cl [2,4-Dichlorobenzoic acid] | 6.78 | 124.87 |  | 
O=C(c1ccccc1)c1ccc(O)cc1O [2,4-Dihydroxybenzophenone] | 11.7 | 146.26 |  | 
O=[N+]([O-])c1ccc(O)c([N+](=O)[O-])c1 [2,4-Dinitrophenol] | 6.09 | 125.27 |  | 
CN(C)Cc1cc(C(C)(C)C)c(O)c(C(C)(C)C)c1 [2,6-Di-tert-Butyl-4-(dimethylamino)methylphenol] | 17.1 | 173.06 | 12.7 | 176.35
NC(=O)c1c(Cl)cccc1Cl [2,6-Dichlorobenzamide] |  |  | 7.49 | 133.04
Cc1cccc(C)c1N [2,6-Xylidine] |  |  | 17.9 | 117.81
O=S(=O)(O)c1ccc2ccc(S(=O)(=O)O)cc2c1 [2,7-Naphthalenedisulfonic acid] | 0.97 | 159.15 |  | 
Nc1ccc2nc3ccc(N)cc3nc2c1 [2,8-Diaminophenazine] |  |  | 8.22 | 143.53
COCCOCCOCCO [2-(2-(2-Methoxyethoxy)ethoxy)ethanol] |  |  | 10.6 | 135.18
CCCCCCOc1ccc(-c2nc(-c3ccccc3)nc(-c3ccccc3)n2)c(O)c1 [2-(4,6-Diphenyl-1,3,5-triazine-2-yl)-5-(hexyloxy)-phenol] |  |  | 21.2 | 221.42
Cn1c(N)nc2ncc(-c3ccccc3)cc21 [2-Amino-1-methyl-6-phenylimidazo[4,5-b]pyridine (PhIP)] | 12.1 | 152.05 | 9.5 | 152.56
Cc1cnc2ccc3c(nc(N)n3C)c2n1 [2-Amino-3,8-dimethylimidazo-[4,5-f]quinoxaline (MeIQx)] | 9.09 | 147.68 | 7.67 | 147.79
Cn1c(N)nc2c3cccnc3ccc21 [2-Amino-3-methyl-imidazo[4,5-f]quinoline (IQ)] | 8.79 | 139.48 | 6.04 | 138.89
Nc1ccc2c(n1)[nH]c1ccccc12 [2-Amino-9H-pyrido[2,3-b]indole (AalphaC)] | 12 | 135.27 |  | 
Nc1ccccc1-c1ccccc1 [2-Aminobiphenyl] |  |  | 12.8 | 141.24
CCNc1nc(O)nc(NC(C)C)n1 [2-Hydroxyatrazine] | 10.7 | 146.65 | 8.5 | 147.52
CCNS(=O)(=O)C(F)(F)C(F)(F)C(F)(F)C(F)(F)C(F)(F)C(F)(F)C(F)(F)C(F)(F)F [2-N-Ethylperfluorooctanesulfonamide] | 17.6 | 178.3 |  | 
CCCCCCCCn1sccc1=O [2-Octyl-4-isothiazolin-3-one] |  |  | 14.9 | 157.49
Oc1ccccc1-c1ccccc1 [2-Phenylphenol] | 13.9 | 134.42 |  | 
O=[PH]1Oc2ccccc2-c2ccccc21 (configuration not stated) [3,4,5,6-Dibenzo-1,2-oxaphosphane-2-oxide] | 8.76 | 144.27 |  | 
Oc1cc(Cl)c(Cl)c(Cl)c1 [3,4,5-Trichlorophenol] | 14.7 | 126.86 |  | 
Oc1nc(Cl)c(Cl)cc1Cl [3,5,6-Trichloro-2-pyridinol] | 11.2 | 125.88 |  | 
N#Cc1cc(Br)c(O)c(Br)c1 [3,5-Dibromo-4-hydroxybenzonitrile] | 8.01 | 129.33 |  | 
Cc1ccc(N)cc1Cl [3-Chloro-4-methylaniline] |  |  | 12.2 | 148.73
CCCCNC(=O)OCC#CI [3-Iodopropynyl butylcarbamate] |  |  | 12.8 | 147.73

Results, then the compound that gave them:

reversed-phase LC retention time [1, 3] [min] | collision cross section [2, 3] [Å²] | reversed-phase LC retention time [1, 4] [min] | collision cross section [2, 4] [Å²] | Compound
6.1 | 148.72 | 5.19 | 148.57 | O=S(=O)(O)CCNC1CCCCC1 [2-(Cyclohexylamino)-ethansulfonic acid]
 |  | 7.54 | 138.67 | CCN(CC)c1nc(=O)cc(C)[nH]1 [2-(Diethylamino)-6-methylpyrimidin-4-one]
7.02 | 154.35 |  |  | N#Cc1c(Cl)c(Cl)c(S(=O)(=O)O)c(C(N)=O)c1Cl [2-Amido-3,5,6-trichloro-4-cyanobenzenesulfonic acid]
 |  | 5.92 | 124.95 | Nc1nc2ccccc2[nH]1 [2-Aminobenzimidazole]
7.26 | 139.34 | 7.62 | 141.34 | O=S(=O)(O)c1nc2ccccc2s1 [2-Benzothiazolesulfonic acid]
19.6 | 193.31 | 18.9 | 193.92 | CCCCCCCCOc1ccc(C(=O)c2ccccc2)c(O)c1 [2-Hydroxy-4-(octyloxyl)benzophenone]
10.6 | 122.14 | 10.5 | 126.56 | O=c1[nH]c2ccccc2s1 [2-Hydroxybenzothiazole]
 |  | 10.3 | 155.33 | NC(=O)N1c2ccccc2C=Cc2cc(O)ccc21 [2-Hydroxycarbamazepine]
12.4 | 138.96 |  |  | Oc1ccc2c(c1)[nH]c1ccccc12 [2-Hydroxycarbazole]
8.55 | 140.22 | 6.43 | 142.3 | CC(C)(C)Nc1nc(N)nc(O)n1 [2-Hydroxydesethylterbuthylazine]
 |  | 7.51 | 131.58 | Cc1cc(=O)[nH]c(C(C)C)n1 [2-Isopropyl-6-methyl-pyrimidin-4-ol]
 |  | 17.1 | 155.68 | CC(C)c1ccc2sc3ccccc3c(=O)c2c1 [2-Isopropylthioxanthone]
8.49 | 142.13 |  |  | O=S(=O)(O)c1ccc2ccccc2c1 [2-Naphthalenesulfonic acid]
7.16 | 144.25 |  |  | O=S(=O)(O)c1cccc2ccc(O)cc12 [2-Naphthol-8-sulfonic acid]
12.4 | 134.15 | 12.2 | 146.21 | NC(=O)Nc1ccc(Cl)c(Cl)c1 [3,4-Dichlorophenylurea]
16.3 | 165.11 |  |  | CC(=O)c1cc(C(C)(C)C)c(O)c(C(C)(C)C)c1 [3,5-Di-tert-butyl-4'-hydroxyacetophenone]
 |  | 10.8 | 139.49 | CN(C)C(=O)NC1CCCCC1 [3-Cyclohexyl-1,1-dimethylurea]
16.1 | 149.63 |  |  | Oc1cc(-c2ccc(Cl)cc2)ccc1Cl [3-Hydroxy-4,4'-dichlorobiphenyl]
0.97 | 178.47 |  |  | Nc1ccc(/C=C/c2ccc(N)cc2S(=O)(=O)O)c(S(=O)(=O)O)c1 [4,4'-Diaminostilbene-2,2'-disulfonic acid]
